Assay results from US20190160089A1, “COMBINATION TREATMENT WITH ANTIBODY-DRUG CONJUGATES AND CYTARABINE” (IMMUNOGEN, INC., priority 2017, published 2019).

Assays:
[1] = system: MV4-11; assay: In vitro CD33 expression post-treatment with cytarabine (flow cytometry, PE anti-CD33); type: cell-based, human; conditions: cytarabine 2,500 nM, 15, 24, 39, 48 hours post-treatment
Protocol: (§1) CD33 expression was assessed post-treatment with cytarabine. In these experiments, two AML cell lines with cell surface display of CD33 and cytarabine sensitivity were used: MV4-11 and MOLM-13. The potency-relative doses were chosen for each treatment, relative to IC50s generated from 96-hour cytotoxicity assays. […] Time points at 15 hours, 24 hours, 39 hours, and 48 hours post-treatment with cytarabine were chosen for cell surface CD33 assessment. Cells were stained with, then washed of excess, PE-conjugated anti-CD33 mAb. Flow cytometric analyses of PE MFI were run on a FACSCanto II flow cytometer. PE-MFIs at each timepoint were normalized to PE-MFIs of untreated control samples and normalized PE-MFIs were considered to represent relative fold-changes in surface CD33 binding sites.

[2] = system: MOLM-13; assay: as above; type: cell-based, human; conditions: cytarabine 400 nM, 15, 24, 39, 48 hours post-treatment
Protocol: as §1

[3] = system: Molm-13 cells, a human AML cell line; assay: In vivo efficacy in Molm-13 disseminated xenograft model; design: species or system mice; conditions: cytarabine alone 75 mg/kg QD×5 days 7-11
Protocol: (§2) The measured end-point was survival. […] Spontaneous deaths were recorded when they were discovered. For disseminated models, Tumor Growth Delay is calculated as T−C, where T is the median survival time (in days) of a treated group and C is the median survival time (in days) of the vehicle control group. The Percent Increased Life Span (% ILS) for disseminated models is calculated using the following formula: % ILS=(T−C)/C×100%.
The cyclophosphamide (Sigma, C0768, Lot # MKBX1822V) was dissolved in 0.9% NaCl and was administered intraperitoneally to the mice on day −2 prior to Molm-13 cell inoculation on day 0.
Following cyclophosphamide treatment as described above, the mice were each injected intravenously in the lateral tail vein with 2×10^5 Molm-13 cells, a human AML cell line, in 100 μl of serum-free medium on day 0 in the study.
Cytarabine, in contrast, was given once a day (QD) at a dose of 75 mg/kg for five consecutive days (×5) and always on a fixed set of days in the study time line: Days 7, 8, 9, 10 and 11.
The results are represented in Table 5 (below) and in FIG. 3.

[4] = system: EOL-1 cells, a human AML cell line; assay: In vivo efficacy in EOL-1 subcutaneous xenograft model; conditions: EOL-1 sc xenograft; IMGN779 5 μg/kg day 10; cytarabine 75 mg/kg days 10-14; text: long-term CRs on day 90
Protocol: The mice were weighed twice a week and were monitored for clinical signs throughout the duration of the study. Animals were euthanized when hind leg paralysis was present, body weight decreased by >20% of pre-treatment weight, tumor ulceration occurred, or when any signs of distress were visible. Tumor volumes were measured one to two times weekly in three dimensions using a caliper. […] Tumor Growth Inhibition (T/C Value) was also assessed using the following formula: T/C (%)=(Median tumor volume of the treated/Median tumor volume of the control)×100%. Tumor volume was determined simultaneously for the treated (T) and the vehicle control (C) groups when tumor volume of the vehicle control reached a predetermined size (Bissery et al., Cancer Res. 51: 4845-52 (1991). The daily median tumor volume of each treated group was determined, including tumor-free mice (0 mm^3). According to NCI standards, a T/C≤42% is the minimum level of anti-tumor activity. A T/C<10% is considered a high anti-tumor activity level.
Female athymic nude mice were each inoculated with 1×10^7 EOL-1 cells, a human AML cell line, in 100 μl serum free medium subcutaneously in the right flank. […]

[5] = system: MV4-11 cells, a human AML cell line; assay: In vivo efficacy in MV4-11 disseminated xenograft model; design: species or system mice; conditions: cytarabine alone 75 mg/kg QD×5 days 24-28
Protocol: as §2
The cyclophosphamide (Sigma, C0768, Lot # MKBX1822V) was dissolved in 0.9% NaCl and was administered intraperitoneally to the mice on day −3 and day −2 prior to MV4-11 cell inoculation.
Following cyclophosphamide treatment as described above, the mice were each injected intravenously in the lateral tail vein with 3×10^6 MV4-11 cells, a human AML cell line, in 100 μl of serum-free medium on day 0 in the study.
Cytarabine was given once a day (QD) at a dose of 75 mg/kg for five consecutive days (×5) and always administered on the same fixed set of days in the study time line: days 24, 25, 26, 27 and 28.
Lastly, Group K received QW×3 dosing of 1 μg/kg by DGN462 (0.0556 mg/kg by antibody) of a non-targeted control conjugate, Ab-DGN462, on a day 21, 28 and 35 dosing schedule (“Day 21”, with FcR blocking).

[6] = biological target: CD33 (Homo sapiens, UniProt P20138); conditions: CD33 on the surface of CD33-positive cells; cited from earlier work
CD33, sequence (P20138 18-364): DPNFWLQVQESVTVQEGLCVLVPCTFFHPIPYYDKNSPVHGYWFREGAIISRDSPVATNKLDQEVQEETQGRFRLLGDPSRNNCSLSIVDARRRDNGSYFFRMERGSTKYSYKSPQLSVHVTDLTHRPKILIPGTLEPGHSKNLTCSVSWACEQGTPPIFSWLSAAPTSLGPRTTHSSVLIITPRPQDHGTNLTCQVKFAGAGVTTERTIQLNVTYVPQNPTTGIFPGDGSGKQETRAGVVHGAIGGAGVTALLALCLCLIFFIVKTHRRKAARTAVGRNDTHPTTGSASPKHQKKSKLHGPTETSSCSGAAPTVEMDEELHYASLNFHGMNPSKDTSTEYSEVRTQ

Molecule	CD33 transcription and cell surface expression [1]	CD33 transcription and cell surface expression [2]	Median Survival Time ([3]; NOD SCID mice) [days]	% Increased Life Span (ILS) [3] [%]	Result [3]	Tumor Growth Delay (T-C, Days) [3] [days]	Tumor Free Survivors (Day 90) [4]	Median Survival Time ([5]; NOD SCID mice) [days]	% Increased Life Span (ILS) [5] [%]	Result [5]	Tumor Growth Delay (T-C, Days) [5] [days]	binding affinity to CD33 [6]
Nc1ccn([C@@H]2O[C@H](CO)[C@@H](O)[C@@H]2O)c(=O)n1 [Cytarabine, cytosine arabinoside]	dose- and time-dependent increase	dose- and time-dependent increase	20	0	Inactive	0	0/6	46	0	Inactive	0	
My9-6: murine anti-CD33 antibody from which huMy9-6 is derived												high affinity
